Measurements published in patent US8796333B2, “Method of using β-hydroxy-β-methylbutyrate to treat a condition” (Abbott Laboratories, priority 2005, dated 2014).

Assays:
[1] = tested on: peripheral blood mononuclear cells (PBMC) stimulated with CD3/CD28; experiment: Cytokine production by PBMCs stimulated with CD3/CD28 for 24 hours, Bio-plex Cytokine Assay; format: cell-based, human
Experimental: To induce production of cytokines, PBMCs, isolated from peripheral blood of 10 normal healthy donors, are stimulated for 24 hours with the T cell stimulant CD3/CD28. Cytokine production is analyzed using a Bio-plex Cytokine Assay. The Bio-Plex technology is based on antibody-antigen interactions, wherein fluorescently labeled beads conjugated with antibody directed against the cytokine of interest bind target cytokine to the bead. This bead-cytokine complex is then exposed to a biotinylated detection antibody and a streptavidin-PE (phycoerythrin) reporter molecule. The signal from the reporter molecule is directly proportional to the amount of cytokine present, thus enabling cytokine quantification.
Each of the T cell-derived cytokines quantified in the experiment is described in the following table:
A t-test (paired sample, two-tailed) is performed in which a broad range of type 1 and type 2 cytokines are evaluated from cultures with HMB compared to cultures and without HMB.

seasonal allergies = experiment: Working examples: individuals having or at risk for seasonal allergies given HMB; format: in vivo, human
Experimental: An individual who suffers from seasonal allergies in the spring is given 0.25-1 g of HMB (Nutritional Liquid #5) four times a week for a year. The symptoms of seasonal allergies are reduced the following spring.
The individual is administered 0.1-1.5 g of HMB (Nutritional Liquid #3) once a day for 6 months.

asthma = experiment: Working examples: individuals having or at risk for asthma given HMB; format: in vivo, human
Experimental: A person who normally has four exacerbations of asthma per year is administered 1-10 g of HMB (Nutritional Liquid #5) four times a week for a year.
A person suffering from moderate persistent asthma is tested to determine the individual's FEV1 percentage value and the value is recorded.
A person suffering from mild intermittent asthma is tested to determine the individual's FEV1 percentage value and a value of 83% is recorded. The individual is then administered 1.5-6 g of HMB 4 times (Nutritional Liquid #5) a week for a year. One year later the individual's FEV1 remains above 80% and symptoms of asthma are reduced.
The individual is administered 250 mg of HMB (Nutritional Liquid #4) once a day for 6 months.

ovarian cancer = experiment: Working example: individual after chemotherapy for ovarian cancer given HMB; format: in vivo, human; details: person after chemotherapy; 2-10 g HMB (Nutritional Liquid #1) four times a week for a year
Experimental: A person who has undergone chemotherapy for ovarian cancer is administered 2-10 g of HMB (Nutritional Liquid #1) four times a week for a year.

kidney tumors = experiment: Working example: individual treated for kidney tumors given HMB; format: in vivo, human; details: person; 750 mg HMB (capsules) four times a week for a year
Experimental: A person diagnosed with and has been treated for kidney tumors is administered 750 mg of HMB (capsules) four times a week for a year.

melanoma = experiment: Working example: individual treated for melanoma given HMB; format: in vivo, human; details: person; 1 g HMB (Nutritional Liquid #1) 4 times a week for a year
stress = experiment: Working examples: individuals with psychological, surgical or pre-surgical stress given HMB; format: in vivo, human; details: person
Experimental: A person suffering from severe symptoms of psychological stress as a result of a burn injury is administered 500 mg (Nutritional Liquid #1) of HMB 4 times a week for a year. One year later the symptoms of psychological stress are reduced.
A person suffering from symptoms of surgical stress is administered 200 mg of HMB (Nutritional Liquid #2) 7 times a week for 2 months. Two months later the symptoms of surgical stress are reduced.
A person suffering from symptoms of pre-surgical stress is administered 200 mg of HMB (capsules) once a day for 3 weeks preceding the individual's scheduled surgery. At the end of the 3 weeks, symptoms of pre-surgical stress are reduced.

[2] = tested on: respiratory tract infections; experiment: Working examples: respiratory infections in individuals given HMB; format: in vivo, human; details: person recovered from pneumonia; 250 mg HMB (Nutritional Liquid #1) once a day for 6 months
Experimental: A person, after conventional treatment for and recovery from pneumonia, is administered 250 mg of HMB (Nutritional Liquid #1) once a day for 6 months.
A person is training for the New York Marathon. During their training period and for 3 months following the event they take two servings per day of Nutritional formula #6 (containing 1 gram HMB per serving).

[3] = 1 mM, 5 mM and 10 mM HMB, FIG. 3
[4] = 5 mM and 10 mM HMB, PBMC, CD3/CD28, 24 hours, vs no HMB, FIG. 1
[5] = PBMC, CD3/CD28, 24 hours, vs no HMB, FIG. 1
[6] = PBMC, CD3/CD28, 24 hours, vs no HMB, FIG. 2
[7] = person, moderate persistent asthma, 5-10 g HMB (Nutritional Liquid #5) 4 times a week for a year

CC(C)(O)CC(=O)O [HMB, β-hydroxy-β-methylbutyrate]
IL-2 production relative to IL-5 production [1, 3]: increased
IL-2 production relative to IL-13 production [1, 3]: increased
IL-2 production relative to IL-4 production ([1]; 5 mM and 10 mM HMB, FIG. 3): Increases
IL-2 production relative to IL-10 production ([1]; 5 mM and 10 mM HMB, FIG. 3): Increases
IL-12 production relative to IL-4 ([1]; 5 mM and 10 mM HMB, FIG. 4): Increases
IL-12 production relative to IL-5 ([1]; 5 mM and 10 mM HMB, FIG. 4): Increases
IL-12 production relative to IL-10 ([1]; 5 mM and 10 mM HMB, FIG. 4): Increases
IL-12 production relative to IL-13 ([1]; 5 mM and 10 mM HMB, FIG. 4): Increases
IFNγ production relative to IL-5 ([1]; 5 mM and 10 mM HMB, FIG. 5): increases
IL-2 production (type 1 cytokine) ([1]; 5 mM and 10 mM HMB, PBMC of 10 healthy donors, CD3/CD28, 24 hours, vs no HMB, FIG. 1): Significant dose response increases
IFNγ production (type 1 cytokine) [1, 4]: Significant dose response increases
IL-12 production (type 1 cytokine) [1, 4]: Significant dose response increases
IFNγ production relative to IL-4 ([1]; 10 mM HMB, FIG. 5): Increases
IFNγ production relative to IL-10 ([1]; 10 mM HMB, FIG. 5): Increases
IL-10 production (type 2 cytokine) ([1]; 10 mM HMB, PBMC, CD3/CD28, 24 hours, vs no HMB, FIG. 2): significant decrease
GC-CSF production [1, 5]: does not significantly affect
TNFα production [1, 5]: does not significantly affect
IL-4 production (type 2 cytokine) [1, 6]: does not significantly affect
IL-5 production (type 2 cytokine) [1, 6]: does not significantly affect
IL-13 production (type 2 cytokine) [1, 6]: does not significantly affect
symptoms of seasonal allergies the following spring (seasonal allergies; individual, 0.25-1 g HMB (Nutritional Liquid #5) four times a week for a year): reduced
signs of seasonal allergies six months later (seasonal allergies; person with family history, no signs at start, 0.1-1.5 g HMB (Nutritional Liquid #3) once a day for 6 months): still shows no signs
signs of symptoms of asthma six months later (asthma; person with family history, no signs at start, 250 mg HMB (Nutritional Liquid #4) once a day for 6 months): still shows no signs
FEV1 one year later (asthma; person, mild intermittent asthma, baseline FEV1 83%, 1.5-6 g HMB (Nutritional Liquid #5) 4 times a week for a year): above 80%
symptoms of asthma one year later (asthma; person, mild intermittent asthma, 1.5-6 g HMB (Nutritional Liquid #5) 4 times a week for a year): reduced
FEV1 one year later (asthma; [7]): has not decreased
symptoms of asthma one year later (asthma; [7]): reduced
asthma exacerbation frequency (asthma; person, normally four exacerbations per year, 1-10 g HMB (Nutritional Liquid #5) four times a week for a year): decreases to once a year
return of ovarian cancer one year later (ovarian cancer): has not returned
spread of kidney tumor six months later (kidney tumors): has not spread
spread of melanoma six months later (melanoma): has not spread
symptoms of surgical stress, two months later (stress; 200 mg HMB (Nutritional Liquid #2) 7 times a week for 2 months): reduced
symptoms of pre-surgical stress at the end of 3 weeks (stress; 200 mg HMB (capsules) once a day for 3 weeks before surgery): reduced
symptoms of psychological stress after burn injury, one year later (stress; 500 mg HMB (Nutritional Liquid #1) 4 times a week for a year): reduced
respiratory tract infections, including recurrence of pneumonia, during six months [2]: remains free of respiratory tract infections
